Source: patent US6486166B1, “Suppression of cyclin kinase 2 activity for prevention and treatment of DNA viral infections” (Board of Regents, The University of Texas, priority 1997, dated 2002)
Entries after “also recorded” stand apart in the source; their conditions may differ.

How the values were obtained:
human lung fibroblasts = details: 100 μg/ml (0.75 mM); cited from earlier work
[1] = system: HCMV-infected subconfluent LU cells; test: cell cycle distribution (DNA content by flow cytometry) after HCMV infection of subconfluent LU cells with PAA; type: cell-based, human; details: for Percent Cells in phase G0/G1 / Percent Cells in phase G2/M / Percent Cells in phase S: HCMV 5 PFU/cell + PAA 100 μg/ml
non-infected LU cells [2] = details: human, 15 μM
[3] = tolerated dose in animals; type: in vivo; details: printed 'tolerated by rate'
From the text: The preferred dosage of inhibitor of cyclin E/Cdk2 activity in a parenteral administration will vary, depending upon the extent of the virus infection, the severity of the symptoms associated with the infection and patient age, weight and medical history. The number of administrations of the parenteral composition will also vary according to the response of the individual patient to the treatment. In one exemplary application. the dosage of inhibitor of cyclin E/Cdk2 activity would vary with the type of disease and the route of administration. Further studies with animal models of infection will completely define projected doses. […] Weaker Cdk2 inhibitors will be needed at higher concentrations, and stronger, at lower.

HCMV [4] = test: HCMV DNA abundance in infected LU cells by slot blot hybridization; type: cell-based, Human cytomegalovirus strain AD169; details: density-arrested LU cells, 72 hr post-infection
HCMV [5] = test: infectious HCMV yield by plaque assay; type: cell-based, Human cytomegalovirus strain AD169
non-infected LU cells [6] = test: effects on non-infected LU cells (morphology, flow cytometry, BrdU incorporation); details: 15 μM for 96 hr
HCMV-infected LU cells = test: hematoxylin and eosin staining of HCMV-infected LU cells; details: 15 μM; 96 hr after infection

## O=C(O)CP(=O)(O)O [PAA, phosphonoacetic acid]
Human lung fibroblasts
  effect on viral DNA replication: blocks viral DNA replication
[1]; 0 hours after treatment
  Percent Cells in phase G0/G1: 93.3 (1.2) percent
  Percent Cells in phase G2/M: 5.1 (1.0) percent
  Percent Cells in phase S: 1.6 (0.2) percent
[1]; 24 hours after treatment
  Percent Cells in phase G0/G1: 97.2 (0.4) percent
  Percent Cells in phase G2/M: 1.9 (0.3) percent
  Percent Cells in phase S: 0.9 (0.1) percent
[1]; 48 hours after treatment
  Percent Cells in phase G0/G1: 97.1 (0.8) percent
  Percent Cells in phase G2/M: 1.3 (0.4) percent
  Percent Cells in phase S: 1.5 (0.4) percent
[1]; 72 hours after treatment
  Percent Cells in phase G0/G1: 97.2 (0.3) percent
  Percent Cells in phase G2/M: 0.9 (0.1) percent
  Percent Cells in phase S: 1.9 (0.3) percent
[1]; subconfluent LU cells infected in the presence of PAA
  increase in DNA content after HCMV infection: no detectable increase in DNA content

## Cn1cnc2c(NCc3ccccc3)nc(NCCO)nc21 [olomoucine]
non-infected LU cells [2]
  cells able to incorporate bromodeoxyuridine (BrdU) after removal of the inhibitor: more than 70%

## CC[C@H](CO)Nc1nc(NCc2ccccc2)c2ncn(C(C)C)c2n1 [roscovitine]
[3]
  tolerated dose: 3 µg/kg
HCMV [4]; 1 μM
  HCMV DNA abundance reduced: ~50%
HCMV [4]; 10 μM
  viral DNA abundance reduced: > 90%
HCMV [5]; 2.5 μM, 96 hr post-infection
  infectious HCMV yields reduced: > 90%
HCMV [5]; Human betaherpesvirus 5, 96 h, read-out: inhibition of infectious HCMV yields
  inhibition at 10 µM: > 99.9%
non-infected LU cells [6]
  morphological changes of non-infected LU cells: no morphological changes; also recorded: did not present with any obvious morphological changes
non-infected LU cells [6]; flow cytometry
  cell cycle state of non-infected cells: arrested in G0/G1 or G2/M phase
HCMV-infected LU cells
  morphology of HCMV-infected cells: clearly dying or dead
